{
  "source": "paper PMC8413292",
  "about": "“Small-molecule polymerase inhibitor protects non-human primates from measles and reduces shedding” (Nature Communications, 2021)",
  "test_system": "MeV N gene RNA",
  "experiment": "Quantitative RT-PCR of MeV N RNA in PBMCs",
  "assay_type": "in vivo",
  "experimental": "Organs (21 days post-infection) and PBMCs (twice a week) were frozen in RNAlater (Qiagen) at −80 °C until further processing. For the deceased animal, organs were frozen in RNAlater at the day of death. Lymph nodes were thawed on ice, transferred to TRIzol (ambion life technologies) and homogenized using a tissue homogenizer. Total RNA of lymph nodes and PBMCs was extracted following the TRIzol manufacturer’s protocol. RNA (1000 ng for lymph nodes; 110 ng for PBMCs) was then subjected to reverse transcription using random hexamer primers and Superscript III reverse transcriptase in accordance with the manufacturer’s protocols. Subsequent quantitative PCR (qPCR) was carried out using primer pairs specific for a fragment in the MeV N gene[23] or GAPDH gene(Supplementary Table 2) and the PowerUp SYBR Green Master Mix (Thermo Fisher Scientific) in an Applied Biosystems 7500 Real-Time PCR system. Samples were normalized for GAPDH. The comparative (ΔΔCt) Ct method was applied to determine relative amounts of N-encoding RNA present in samples from treated animals compared to those obtained from untreated control animals (lymph nodes) or compared to those obtained from untreated control animals on day 7 post-infection (peak PBMC virus titer).",
  "note": "Values joined by “and” are separate entries in the source; they are usually repeats but may differ in a detail not shown here. Identical values can stand only once.",
  "data": [
    {"smiles": "Cn1nc(C(F)(F)F)cc1C(=O)Nc1ccc(S(=O)(=O)N2CCCC[C@H]2CCN2CCOCC2)cc1", "note": "[ERDRP-0519]", "values": [
      {"measurement": "Supp. Figure 3a, relative MeV N RNA in PBMCs, group mean (Mean 2)", "setting": "prophylactic, Day 0", "result": -12.26},
      {"measurement": "Supp. Figure 3a, relative MeV N RNA in PBMCs, group mean (Mean 2)", "setting": "prophylactic, Day 3", "result": -12.06},
      {"measurement": "Supp. Figure 3a, relative MeV N RNA in PBMCs, group mean (Mean 2)", "setting": "prophylactic, Day 7", "result": -11.48},
      {"measurement": "Supp. Figure 3a, relative MeV N RNA in PBMCs, group mean (Mean 2)", "setting": "prophylactic, Day 10", "result": -12.34},
      {"measurement": "Supp. Figure 3a, relative MeV N RNA in PBMCs, group mean (Mean 2)", "setting": "prophylactic, Day 14", "result": -13.16},
      {"measurement": "Supp. Figure 3a, relative MeV N RNA in PBMCs, group mean (Mean 2)", "setting": "prophylactic, Day 17", "result": -11.47},
      {"measurement": "Supp. Figure 3a, relative MeV N RNA in PBMCs, group mean (Mean 2)", "setting": "prophylactic, Day 21", "result": -10.12},
      {"measurement": "Supplemental Figure 3a source data, relative MeV N RNA in PBMCs, individual animals", "setting": "prophylactic, time (d) 0", "result": "-12.3202 and -6.433 and -10.4614 and -17.6101 and -12.9356 and -13.7878"},
      {"measurement": "Supplemental Figure 3a source data, relative MeV N RNA in PBMCs, individual animals", "setting": "prophylactic, time (d) 3", "result": "-12.847 and -12.9062 and -10.7172 and -12.2727 and -12.1274 and -11.494"},
      {"measurement": "Supplemental Figure 3a source data, relative MeV N RNA in PBMCs, individual animals", "setting": "prophylactic, time (d) 7", "result": "-12.6218 and -9.583 and -12.0312 and -12.5732 and -12.8193 and -9.245"},
      {"measurement": "Supplemental Figure 3a source data, relative MeV N RNA in PBMCs, individual animals", "setting": "prophylactic, time (d) 10", "result": "-9.991 and -12.9071 and -11.8528 and -13.7115 and -14.2547 and -11.2939"},
      {"measurement": "Supplemental Figure 3a source data, relative MeV N RNA in PBMCs, individual animals", "setting": "prophylactic, time (d) 14", "result": "-12.3346 and -10.7326 and -10.4158 and -12.9517 and -16.1088 and -16.4382"},
      {"measurement": "Supplemental Figure 3a source data, relative MeV N RNA in PBMCs, individual animals", "setting": "prophylactic, time (d) 17", "result": "-14.0262 and -7.645 and -8.833 and -10.0876 and -14.1769 and -14.0235"},
      {"measurement": "Supplemental Figure 3a source data, relative MeV N RNA in PBMCs, individual animals", "setting": "prophylactic, time (d) 21", "result": "-13.9134 and -10.311 and -12.0659 and -11.4656 and -0.8977 and -12.0848"},
      {"measurement": "Supp. Figure 3a, relative MeV N RNA in PBMCs, group mean (Mean 2)", "setting": "therapeutic (d3), Day 0", "result": -13.2},
      {"measurement": "Supp. Figure 3a, relative MeV N RNA in PBMCs, group mean (Mean 2)", "setting": "therapeutic (d3), Day 3", "result": -12.07},
      {"measurement": "Supp. Figure 3a, relative MeV N RNA in PBMCs, group mean (Mean 2)", "setting": "therapeutic (d3), Day 7", "result": -9.205},
      {"measurement": "Supp. Figure 3a, relative MeV N RNA in PBMCs, group mean (Mean 2)", "setting": "therapeutic (d3), Day 10", "result": -9.289},
      {"measurement": "Supp. Figure 3a, relative MeV N RNA in PBMCs, group mean (Mean 2)", "setting": "therapeutic (d3), Day 14", "result": -11.53},
      {"measurement": "Supp. Figure 3a, relative MeV N RNA in PBMCs, group mean (Mean 2)", "setting": "therapeutic (d3), Day 17", "result": -11.67},
      {"measurement": "Supp. Figure 3a, relative MeV N RNA in PBMCs, group mean (Mean 2)", "setting": "therapeutic (d3), Day 21", "result": -13.06},
      {"measurement": "Supplemental Figure 3a source data, relative MeV N RNA in PBMCs, individual animals", "setting": "therapeutic (d3), time (d) 0", "result": "-12.185 and -15.2199 and -11.755 and -14.0483 and -12.7958"},
      {"measurement": "Supplemental Figure 3a source data, relative MeV N RNA in PBMCs, individual animals", "setting": "therapeutic (d3), time (d) 3", "result": "-13.2368 and -9.809 and -12.089 and -11.8661 and -12.6935 and -12.7459"},
      {"measurement": "Supplemental Figure 3a source data, relative MeV N RNA in PBMCs, individual animals", "setting": "therapeutic (d3), time (d) 7", "result": "-6.7874 and -7.787 and -8.103 and -8.648 and -13.5153 and -10.39"},
      {"measurement": "Supplemental Figure 3a source data, relative MeV N RNA in PBMCs, individual animals", "setting": "therapeutic (d3), time (d) 10", "result": "-4.115 and -10.1748 and -9.33 and -8.711 and -14.231 and -9.172"},
      {"measurement": "Supplemental Figure 3a source data, relative MeV N RNA in PBMCs, individual animals", "setting": "therapeutic (d3), time (d) 14", "result": "-9.809 and -12.4589 and -12.5095 and -12.5754 and -8.538 and -13.3167"},
      {"measurement": "Supplemental Figure 3a source data, relative MeV N RNA in PBMCs, individual animals", "setting": "therapeutic (d3), time (d) 17", "result": "-10.29 and -10.5346 and -12.5229 and -11.5387 and -13.4468"},
      {"measurement": "Supplemental Figure 3a source data, relative MeV N RNA in PBMCs, individual animals", "setting": "therapeutic (d3), time (d) 21", "result": "-15.6913 and -17.4162 and -8.965 and -9.87 and -13.3809"},
      {"measurement": "Supp. Figure 3a, relative MeV N RNA in PBMCs, group mean (Mean 2)", "setting": "therapeutic (d7), Day 0", "result": -11.48},
      {"measurement": "Supp. Figure 3a, relative MeV N RNA in PBMCs, group mean (Mean 2)", "setting": "therapeutic (d7), Day 3", "result": -11.42},
      {"measurement": "Supp. Figure 3a, relative MeV N RNA in PBMCs, group mean (Mean 2)", "setting": "therapeutic (d7), Day 7", "result": -3.189},
      {"measurement": "Supp. Figure 3a, relative MeV N RNA in PBMCs, group mean (Mean 2)", "setting": "therapeutic (d7), Day 10", "result": -4.318},
      {"measurement": "Supp. Figure 3a, relative MeV N RNA in PBMCs, group mean (Mean 2)", "setting": "therapeutic (d7), Day 14", "result": -7.135},
      {"measurement": "Supp. Figure 3a, relative MeV N RNA in PBMCs, group mean (Mean 2)", "setting": "therapeutic (d7), Day 17", "result": -8.639},
      {"measurement": "Supp. Figure 3a, relative MeV N RNA in PBMCs, group mean (Mean 2)", "setting": "therapeutic (d7), Day 21", "result": -9.558},
      {"measurement": "Supplemental Figure 3a source data, relative MeV N RNA in PBMCs, individual animals", "setting": "therapeutic (d7), time (d) 0", "result": "-14.3685 and -13.0066 and -11.8077 and -7.512 and -11.9115 and -10.2528"},
      {"measurement": "Supplemental Figure 3a source data, relative MeV N RNA in PBMCs, individual animals", "setting": "therapeutic (d7), time (d) 3", "result": "-13.8644 and -13.9177 and -9.909 and -10.1407 and -11.3735 and -9.308"},
      {"measurement": "Supplemental Figure 3a source data, relative MeV N RNA in PBMCs, individual animals", "setting": "therapeutic (d7), time (d) 7", "result": "-0.7497 and -4.549 and -6.525 and -1.948 and -0.04871 and -5.313"},
      {"measurement": "Supplemental Figure 3a source data, relative MeV N RNA in PBMCs, individual animals", "setting": "therapeutic (d7), time (d) 10", "result": -4.45},
      {"measurement": "Supp. Figure 3a, relative MeV N RNA in PBMCs, Mean Diff.", "setting": "untreated vs. prophylactic, Day 0", "result": -1.268},
      {"measurement": "Supp. Figure 3a, relative MeV N RNA in PBMCs, Mean Diff.", "setting": "untreated vs. prophylactic, Day 3", "result": 0.4295},
      {"measurement": "Supp. Figure 3a, relative MeV N RNA in PBMCs, Mean Diff.", "setting": "untreated vs. prophylactic, Day 7", "result": 11.48},
      {"measurement": "Supp. Figure 3a, relative MeV N RNA in PBMCs, Mean Diff.", "setting": "untreated vs. prophylactic, Day 10", "result": 11.3},
      {"measurement": "Supp. Figure 3a, relative MeV N RNA in PBMCs, Mean Diff.", "setting": "untreated vs. prophylactic, Day 14", "result": 6.945},
      {"measurement": "Supp. Figure 3a, relative MeV N RNA in PBMCs, Mean Diff.", "setting": "untreated vs. prophylactic, Day 17", "result": 2.967},
      {"measurement": "Supp. Figure 3a, relative MeV N RNA in PBMCs, Mean Diff.", "setting": "untreated vs. prophylactic, Day 21", "result": 0.4094},
      {"measurement": "Supp. Figure 3a, relative MeV N RNA in PBMCs, Mean Diff.", "setting": "untreated vs. therapeutic (d3), Day 0", "result": -0.325},
      {"measurement": "Supp. Figure 3a, relative MeV N RNA in PBMCs, Mean Diff.", "setting": "untreated vs. therapeutic (d3), Day 3", "result": 0.4421},
      {"measurement": "Supp. Figure 3a, relative MeV N RNA in PBMCs, Mean Diff.", "setting": "untreated vs. therapeutic (d3), Day 7", "result": 9.205},
      {"measurement": "Supp. Figure 3a, relative MeV N RNA in PBMCs, Mean Diff.", "setting": "untreated vs. therapeutic (d3), Day 10", "result": 8.257},
      {"measurement": "Supp. Figure 3a, relative MeV N RNA in PBMCs, Mean Diff.", "setting": "untreated vs. therapeutic (d3), Day 14", "result": 5.316}
    ]}
  ]
}
